Legend:
[1] = system: forebrain neuroepithelial tissues; assay: Singular neural rosette emergence in micropatterned forebrain neuroepithelial tissues, with ROCK inhibition; format: cell-based, human; conditions: for singular rosette emergence efficiency: presence of 10 μM ROCK inhibitor, 5 days
Text: (§1) NEC biomechanical properties vary by regional phenotype and affect rosette emergence behavior: The inefficient induction of singular rosette emergence in spinal neuroepithelial tissues under micropatterning conditions that were highly efficient for forebrain NECs prompted a re-examination of the optimal circular micropattern size for each regional phenotype. Moreover, we investigated how altering the biomechanical properties of each regional neuroepithelial tissue, by partial inhibition of the Rho-associated protein kinase (ROCK), would affect which micropattern size induced optimal singular rosette emergence. D-1 hESCs and 72-hr caudalized NMPs were seeded at 100,000 and 250,000 cells/cm^2, respectively, onto 150 (0.018 mm^2), 180 (0.025 mm^2), 200 (0.031 mm^2), 250 (0.049 mm^2), and 400 μm (0.126 mm^2) diameter circular micropattern arrays to generate forebrain and spinal neuroepithelial tissues (FIGS. 6A-6B and 6D-6E). […] Similar to our previous results, the efficiency of singular neural rosette emergence for forebrain tissues peaked at 85% on 250 μm (0.049 mm^2) diameter circular micropatterns (FIG. 6C). However, in the presence vs. absence of ROCK inhibitor, the efficiency curve shifted leftward inducing singular rosette emergence in 75% vs. 0% of 150 μm (0.018 mm^2), 89% vs. 50% of 180 μm (0.025 mm^2), 87% vs. 58% of 200 μm (0.031 mm^2), and 11% vs. 85% of 250 μm (0.049 mm^2) diameter forebrain neuroepithelial tissues, respectively.
Generation of Micropatterned Forebrain Neural Tissues: WA09 or HUES3 Hb9::GFP hESCs were maintained in Essential 8 medium (E8) on MATRIGEL™-coated TCPS plates and routinely passaged with Versene (Thermo Fisher). NEC derivation from hPSCs was performed in accordance with the E6 protocol (23). To generate NEC-derived micropatterned tissues at various stages of neural derivation, cells were first rinsed with PBS, dissociated with Accutase (Thermo Fisher) for 5 minutes at 37° C., and collected via centrifugation at 1000 rpm for 5 minutes. Singularized NECs were re-suspended in E6 media with 10 μM ROCK inhibitor (Y27632; R&D Systems) and seeded onto micropatterned substrates at 75,000 cells/cm^2 in 2 mL of media per well. The following day the media was replaced with 2 mL of E6 media and 50% media changes were performed daily thereafter. Alternatively, to generate hPSC-derived micropatterned tissues, hPSC cultures at ˜85% confluency were rinsed with PBS, dissociated with Accutase for 5 minutes at 37° C. and collected via centrifugation at 1000 rpm for 5 minutes. Singularized hPSCs were then suspended in E8 media with 10 μM ROCK inhibitor and seeded onto micropatterned substrates at 100,000 cells/cm^2 in 2 mL of media per well. The following day the media was replaced with 2 mL of E6 media and 50% media changes were performed daily thereafter.
Immunocytochemistry and Microscopy: Micropatterned tissues were rinsed with PBS and fixed with 4% paraformaldehyde (PFA, Sigma Aldrich) in PBS for 10 minutes at room temperature. Following three rinses with phosphate buffered saline (PBS), the micropatterned substrates were blocked and permeabilized in PBS with 5% Donkey Serum and 0.3% Triton X-100 (TX100; Thermo Fisher) (PBS-DT) for 1 hour at room temperature. Next, the tissues were incubated with primary antibodies diluted in PBS-DT for 2 hours at room temperature or overnight at 4° C. Then, the substrates were rinsed in PBD-DT 3 times for 15 minutes each. Secondary antibodies were diluted in PBS-DT and exposed to the tissues for 1 hour at room temperature. Tissue nuclei were subsequently stained with 300 nM 4′,6-diamidino-2-phenylindoldihydrochloride (DAPI, Sigma Aldrich) for 30 minutes followed by three 15 minute PBS washes. The micropatterned substrates were mounted on glass coverslips using Prolong Gold Antifade Reagent (Thermo Fisher). […]

[2] = system: spinal neuroepithelial tissues; assay: Singular neural rosette emergence in micropatterned spinal neuroepithelial tissues, with ROCK inhibition; format: cell-based, human; conditions: for effect on ability to form neural rosettes: 10 μM ROCK inhibitor, 5 days, spinal neuroepithelial tissues, dihydrochloride
Text: as §1
Generation of Micropatterned Spinal Cord Neuroepithelial Tissues: Caudalization of hPSC-derived cultures to generate micropatterned neuroepithelial tissues of the cervical/thoracic spinal cord was performed using a modified version of the deterministic HOX patterning protocol (36). Human PSCs were dissociated with Accutase and seeded onto MATRIGEL™-coated, 6-well TCPS plates at 150,000 cells/cm^2 in E8 media comprising 10 μM ROCK inhibitor. […]

## C[C@@H](N)[C@H]1CC[C@H](C(=O)Nc2ccncc2)CC1.Cl.Cl [ROCK inhibitor, (+)-(R)-trans-4-(1-aminoethyl)-N-(4-pyridyl)cyclohexanecarboxamide dihydrochloride]
[1]; 10 μM Rock inhibitor, forebrain NECs
  effect on rosette formation capacity: only partially diminish
[1]; forebrain tissues of a given micropattern size, 10 μM
  NEC density in presence vs. absence of ROCK inhibitor: did not vary significantly
[1]; 150 μm (0.018 mm^2) diameter circular micropatterns
  singular rosette emergence efficiency: 75%
[1]; 180 μm (0.025 mm^2) diameter circular micropatterns
  singular rosette emergence efficiency: 89%
[1]; 200 μm (0.031 mm^2) diameter circular micropatterns
  singular rosette emergence efficiency: 87%
[1]; 250 μm (0.049 mm^2) diameter circular micropatterns
  singular rosette emergence efficiency: 11%
[2]
  effect on ability to form neural rosettes: completely abolished their ability form neural rosettes
[2]; listed as Rock inhibitor
  effect on ability to form neural rosettes: fully eliminate
[2]; spinal tissues of a given micropattern size, 10 μM
  NEC density in presence vs. absence of ROCK inhibitor: did not vary significantly

Reference: patent US12529032B2, “Methods and culture substrates for controlled induction of biomimetic neural tissues comprising singular rosette structures” (priority 2017, dated 2026)
